# Assay results published in patent US20040266811A1, “Methods for inducing regeneration, remyelination, and hypermyelination of nervous tissue” (priority 2002, published 2004).
# “Also recorded” adds a separate entry of the source.
# Columns and labels:
# recombinant FKBP52 = target: T1, recombinant FKBP52 (Homo sapiens, UniProt Q02790); assay: Tryptophan fluorescence (QTFS) binding to recombinant FKBP52
# T1 construct: other: QTFS, 18° C., unit not given; dissociation constant (kd) for FKBP52 by QTFS; other: QTFS; fused on or other part: probably GST at the N-terminus (pGEX-6p), as in b91 and the GST-alone control of b31
# T1 sequence (Q02790 1-459): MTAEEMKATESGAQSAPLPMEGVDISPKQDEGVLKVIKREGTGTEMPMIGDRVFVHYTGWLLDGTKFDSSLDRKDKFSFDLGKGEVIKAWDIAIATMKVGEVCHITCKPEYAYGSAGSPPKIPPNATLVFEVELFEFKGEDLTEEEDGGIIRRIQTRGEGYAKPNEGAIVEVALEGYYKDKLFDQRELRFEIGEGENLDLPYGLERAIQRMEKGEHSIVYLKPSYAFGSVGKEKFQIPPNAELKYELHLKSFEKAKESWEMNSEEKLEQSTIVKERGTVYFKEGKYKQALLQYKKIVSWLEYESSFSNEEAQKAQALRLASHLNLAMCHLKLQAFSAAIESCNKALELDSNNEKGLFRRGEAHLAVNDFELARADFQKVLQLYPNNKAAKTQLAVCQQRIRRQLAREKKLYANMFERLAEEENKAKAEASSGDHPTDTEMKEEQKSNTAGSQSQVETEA
# DRG explants = assay: Neurite outgrowth from DRG explants; assay type: cell-based, C57B1/6 mice; details: 1 μM GM-284, 96 h
# Description: (A) DRGs were explanted and cultured alone, (panel i), in the presence of 100 ng/ml NGF (panel ii) or in the presence of 1 μM GM-284 (panel iii), for 96 h. At the end of the culture period, the tissue was fixed and stained for expression of neuron-specific β-III tubulin. […] (B) Both Schwann cells and neurons are present in DRG explants. To determine if the neuritogenic effects of GM-284 are direct, acting on neurons, or indirect, acting through Schwann cells, sensory neurons from E18 mice were isolated and treated with either NGF (left panel) or GM-284 (right panel) for 6 days.
# Explanted DRG ganglia were dissected from P1 to P3 C57B1/6 mice, as previously described (Weinstein et al., Targeted expression of an oncogenic adaptor protein v-Crk potentiates axonal growth in dorsal root ganglia and motor neurons in vivo. Brain Res. Dev. Brain Res., 116:29-39, 1999). Briefly, DRGs were dissected and placed in ice-cold PBS containing 2% glucose, then transferred onto polyornithine/laminin-coated tissue culture plates (Biocoat, Becton Dickinson Laboratories) in DMEM-plating medium overnight. […] Cultures were kept at 37° C., in 5% CO2, for up to 1 week, at which time the extent of well-defined neurite outgrowth was assessed.
# [1] = tested on: purified sensory neurons from DRG; assay: Neurite outgrowth in purified (neuron-enriched) sensory neuron cultures; assay type: cell-based, E18 C57B1/6 mice; details: 1 μM GM-284, 6 days
# Description: To generate neuron-enriched DRG cultures, DRGs were isolated from embryonic (E18) C57B1/6 mice, and processed in dissection media containing Hank's CMF saline, with 0.05% collagenase and 0.25% trypsin, for 30 min at 37° C. Neurons were obtained by trituration of ganglia with fire-polished Pasteur pipettes of decreasing diameter. Thereafter, the cellular suspension was washed twice in Dulbecco's modified Eagle medium supplemented with 10% fetal calf serum and 2% glucose. Freshly triturated neurons were incubated in 10% FCS-DMEM supplemented with 5-fluorouracil (Sigma, F-0503) and uridine (Sigma, U3003) for 48 h to remove non-neuronal proliferating cells, in the presence of either 100 ng/ml NGF or 1 μM GM-284. After 48 h, cultures were continued with these agents, but without mitotic inhibitors, for an additional 6 days.
# DRG explants are complex tissues, containing both Schwann cells and neurons. Accordingly, it is possible that GM-284 acts to promote neurite outgrowth directly, by acting on neurons, or indirectly, by acting on adjacent Schwann cells, which then act to promote neuritogenesis. To differentiate these possibilities, sensory neurons from DRG were purified as described (Wood et al., Studies of the initiation of myelination by Schwann cells. Ann. NY Acad. Sci., 605:1-14, 1990), and contaminating Schwann cells were removed by treatment of the cultures with anti-mitotic drugs.
# [2] = tested on: Erk phosphorylation in DRG neurons; assay: Erk phosphorylation immunoblot in DRGs; assay type: cell-based, mice; details: 1 μM GM-284, 30 min or 4 h
# Description: (A) DRGs were prepared and cultured as above, except that either the MEK1 inhibitor, PD 098059, or NGF-neutralizing antibodies were included in cultures treated with either NGF or GM-284. Maximal response was determined to be the extent of neurite outgrowth when DRGs were cultured in NGF alone (spotted bars) or in 1 μM GM-284 (striped bars). As indicated, DRGs were treated with either NGF or GM-284, in the presence of either 0.25 mg/ml anti-NGF neutralizing antibodies or PD 098059. […] DRGs were treated with 100 ng/ml NGF or 1 μM GM-284, for 30 min or 4 h, as indicated, and the detergent lysates were prepared and immunoblotted with anti-phospho-Erk monoclonal antibody. The p42 and p44 bands are indicated by arrowheads.
# 293T cells were lysed in ice-cold HNTG buffer (20 mM HEPES, pH 7.5; 150 mM NaCl; 10% glycerol; and 1% Triton X-100) containing 0.1 mM sodium molybdate, 1 mM sodium vanadate, 1 mM phenylmethylsulfonyl fluoride (PMSF), and 10 μg/ml aprotinin. After 10 min at 4° C., cleared lysates were subjected to SDS-PAGE and Western blot analysis using standard protocols. Blots were incubated with the indicated primary antibodies and the appropriate […] secondary antibodies, followed by detection using enhanced chemiluminescence (ECL) reagent (Renaissance, NEN).
smiles,measurement,setting,value
CCC(C)(C)C(=O)C(=O)N1CCC[C@H]1c1nnc([C@@H]2CCCN2C(=O)C(=O)C(C)(C)CC)o1 [GM-284],"disassociation constant (kd), binding affinity for recombinant FKBP52","recombinant FKBP52; 18° C., unit not given",139±16.2
same,Kd,recombinant FKBP52; read-out: dissociation constant (kd) for FKBP52 by QTFS,0.139 µM
same,neurite outgrowth from DRG explants,DRG explants,as active as NGF in inducing neuritogenesis; also recorded: indistinguishable from NGF-treated sister explants; also recorded: comparable outgrowth in the NGF and GM-284 treated cultures
same,neurite outgrowth in purified neuronal cultures,[1],complete failure to elaborate processes; also recorded: failed to promote axonogenesis; also recorded: no neurite outgrowth
same,Erk phosphorylation in DRG,[2],no activity on Erk phosphorylation; also recorded: fails to activate the ERK pathway
